# Measured values published in patent US20180273528A1 (LES LABORATOIRES SERVIER, priority 2015, published 2018).
# Molecular target: T1, His-TEV-DYRK1A Kinase domain (aa127-485) (Homo sapiens, UniProt Q13627)
# T1 construct: His-TEV-DYRK1A Kinase domain (aa127-485); His tag (N); TEV protease cleavage site (N)
# Experiment: Kinase ADP assay (ADP Hunter), DYRK1A kinase domain
# Type: biochemical
# Details: 20 μM ATP
# Description: The enzyme reaction was conducted in assay buffer (pH 7.4), containing 15 mM Hepes; 20 mM NaCl; 1 mM EGTA; 10 mM MgCl2; 0.02% Tween20 and 0.1 mg/ml Bovine-y-globulin. Test compounds of the invention were added in reaction buffer in a range of concentrations for 10 minutes at 30° C. in the presence of 20 nM DYRK1A enzyme, 40 μM peptide substrate and 20 μM ATP. Detection reagents (DiscoveRx 90-0083), ADP Hunter Plus Reagent A and then ADP Hunter Plus Reagent B were added. After a following 20 minutes incubation at 30° C., ADP Hunter Plus Stop Solution was added. The fluorescence intensity was measured at 590 nm.
row,Compound,IC50 [µM]
1,"4-{3-[2-(2,6-dimethoxyphenoxy)ethyl]-3H-imidazo[4,5-b]pyridin-5-yl}pyridine-2,6-diamine [Example 213]",0.069
2,"Cc1nc2ccc(-c3cc(N)nc(N)c3)nc2n1C[C@H](C)Oc1ccc(F)cn1 (single isomer, unassigned) [Example 178]",0.176
3,"Cc1nc2ccc(-c3cc(N)nc(N)c3)nc2n1C[C@@H](C)Oc1ncccc1Br (single isomer, unassigned) [Example 183]",0.226
4,"Cc1nc2ccc(-c3cc(N)nc(N)c3)nc2n1C[C@H](C)Oc1ccc(Cl)cn1 (single isomer, unassigned) [Example 184]",0.165
5,"Cc1nc2ccc(-c3cc(N)nc(N)c3)nc2n1C[C@@H](C)Oc1ccc(Cl)cn1 (single isomer, unassigned) [Example 185]",0.041
6,"Cc1nc2ccc(-c3cc(N)nc(N)c3)nc2n1C[C@H](C)Oc1ccc(Br)cn1 (single isomer, unassigned) [Example 186]",0.154
7,"Cc1nc2ccc(-c3cc(N)nc(N)c3)nc2n1C[C@@H](C)Oc1ncccc1Cl (single isomer, unassigned) [Example 191]",0.2
8,"Cc1nc2ccc(-c3cc(N)nc(N)c3)nc2n1C[C@H](C)Oc1nc(F)ccc1F (single isomer, unassigned) [Example 192]",0.084
9,"Cc1nc2ccc(-c3cc(N)nc(N)c3)nc2n1C[C@@H](C)Oc1nc(F)ccc1F (single isomer, unassigned) [Example 193]",0.028
10,"Cc1nc2ccc(-c3cc(N)nc(N)c3)nc2n1CCCCO [Example 70, 4-[5-(2,6-diaminopyridin-4-yl)-2-methyl-3H-imidazo[4,5-b]pyridin-3-yl]butan-1-ol]",0.013
11,"Cc1nc2ccc(-c3cc(N)nc(N)c3)nc2n1CC1CCCOC1 (stereo not drawn) [Example 76, 4-[2-methyl-3-(tetrahydro-2H-pyran-3-ylmethyl)-3H-imidazo[4,5-b]pyridin-5-yl]pyridine-2,6-diamine]",0.04
12,"Cc1nc2ccc(-c3cc(N)nc(N)c3)nc2n1CC1CCOCC1 [Example 80, 4-[2-methyl-3-(tetrahydro-2H-pyran-4-ylmethyl)-3H-imidazo[4,5-b]pyridin-5-yl]pyridine-2,6-diamine]",0.043
13,"Cc1nc2ccc(-c3cc(N)nc(N)c3)nc2n1C(C)Cc1ccco1 (stereo not drawn) [Example 82, 4-{3-[1-(furan-2-yl)propan-2-yl]-2-methyl-3H-imidazo[4,5-b]pyridin-5-yl}pyridine-2,6-diamine]",0.096
14,"Cc1nc2ccc(-c3cc(N)nc(N)c3)nc2n1CCC1CCCCC1C (stereo not drawn) [Example 102, 4-{2-methyl-3-[2-(2-methylcyclohexyl)ethyl]-3H-imidazo[4,5-b]pyridin-5-yl}pyridine-2,6-diamine]",0.017
15,"CCCCc1nc2ccc(-c3cc(N)nc(N)c3)nc2n1C [Example 147, 4-(2-butyl-3-methyl-3H-imidazo[4,5-b]pyridin-5-yl)pyridine-2,6-diamine]",0.021
16,"CCc1nc2ccc(-c3cc(N)nc(N)c3)nc2n1C [Example 159, 4-(2-ethyl-3-methyl-3H-imidazo[4,5-b]pyridin-5-yl)pyridine-2,6-diamine]",0.043
17,"CCCc1nc2ccc(-c3cc(N)nc(N)c3)nc2n1C [Example 163, 4-(3-methyl-2-propyl-31-imidazo[4,5-b]pyridin-5-yl)pyridine-2,6-diamine]",0.033
18,Cc1nc2ccc(-c3cc(N)nc(N)c3)nc2n1C[C@@H](C)Oc1ccc(Br)cn1 [Example 187],0.082
19,"COc1ccc(C)cc1OCCn1c(C)nc2ccc(-c3cc(N)nc(N)c3)nc21 [Example 211, 4-{3-[2-(2-methoxy-5-methylphenoxy)ethyl]-2-methyl-3H-imidazo[4,5-b]pyridin-5-yl}pyridine-2,6-diamine]",0.049

# Now from value to compound:
row,IC50 [µM],Compound
1,0.045,"Cc1nc2ccc(-c3cc(N)nc(N)c3)nc2n1[C@H](C)COc1ccccc1 (single isomer, unassigned) [Example 104]"
2,0.092,"Cc1nc2ccc(-c3cc(N)nc(N)c3)nc2n1[C@@H](C)COc1ccccc1 (single isomer, unassigned) [Example 105]"
3,0.031,"Cc1nc2ccc(-c3cc(N)nc(N)c3)nc2n1C[C@@H](C)Oc1ccccc1Cl (single isomer, unassigned) [Example 118]"
4,0.058,"Cc1nc2ccc(-c3cc(N)nc(N)c3)nc2n1C[C@@H](C)Oc1ccc(F)cc1 (single isomer, unassigned) [Example 130]"
5,0.037,"COc1ccccc1O[C@H](C)Cn1c(C)nc2ccc(-c3cc(N)nc(N)c3)nc21 (single isomer, unassigned) [Example 142]"
6,0.081,"Cc1nc2ccc(-c3cc(N)nc(N)c3)nc2n1C[C@@H](C)Oc1cccc(Br)n1 (single isomer, unassigned) [Example 181]"
7,0.017,Cc1nc2ccc(-c3cc(N)nc(N)c3)nc2n1CCc1cccc(OC(C)C)c1 [Example 87]
8,0.012,"Cc1nc2ccc(-c3cc(N)nc(N)c3)nc2n1C/C=C/c1ccccc1 [Example 111, 4-{2-methyl-3-[(2E)-3-phenylprop-2-en-1-yl]-3H-imidazo[4,5-b]pyridin-5-yl}pyridine-2,6-diamine]"
9,0.089,"CCCCc1nc2ccc(-c3cc(N)nc(N)c3)nc2n1CCOc1ccccc1 [Example 146, 4-[2-butyl-3-(2-phenoxyethyl)-3H-imidazo[4,5-b]pyridin-5-yl]pyridine-2,6-diamine]"
10,0.056,"CCCc1nc2ccc(-c3cc(N)nc(N)c3)nc2n1CCOc1ccccc1 [Example 162, 4-[3-(2-phenoxyethyl)-2-propyl-3H-imidazo[4,5-b]pyridin-5-yl]pyridine-2,6-diamine]"
11,0.055,"Cc1nc2ccc(-c3cc(N)nc(N)c3)nc2n1CCOc1ncccc1Br [Example 169, 4-(3-{2-[(3-bromopyridin-2-yl)oxy]ethyl}-2-methyl-3H-imidazo[4,5-b]pyridin-5-yl)pyridine-2,6-diamine]"
12,0.021,"Cc1cccc(OCCn2c(C)nc3ccc(-c4cc(N)nc(N)c4)nc32)c1 [Example 201, 4-{2-methyl-3-[2-(3-methylphenoxy)ethyl]-3H-imidazo[4,5-b]pyridin-5-yl}pyridine-2,6-diamine]"
13,0.041,"Cc1nc2ccc(-c3cc(N)nc(N)c3)nc2n1CCOc1ccccc1Cl [Example 204, 4-{3-[2-(2-chlorophenoxy)ethyl]-2-methyl-3H-imidazo[4,5-b]pyridin-5-yl}pyridine-2,6-diamine]"
14,0.03,"Cc1ccccc1OCCn1c(C)nc2ccc(-c3cc(N)nc(N)c3)nc21 [Example 205, 4-{2-methyl-3-[2-(2-methylphenoxy)ethyl]-3H-imidazo[4,5-b]pyridin-5-yl}pyridine-2,6-diamine]"
15,0.025,"COc1ccc(OCCn2c(C)nc3ccc(-c4cc(N)nc(N)c4)nc32)cc1 [Example 209, 4-{3-[2-(4-methoxyphenoxy)ethyl]-2-methyl-3H-imidazo[4,5-b]pyridin-5-yl}pyridine-2,6-diamine]"
16,0.072,"Cc1nc2ccc(-c3cc(N)nc(N)c3)nc2n1CCOc1ccccc1OC(C)C [Example 214, 4-(2-methyl-3-{2-[2-(propan-2-yloxy)phenoxy]ethyl}-3H-imidazo[4,5-b]pyridin-5-yl)pyridine-2,6-diamine]"
17,0.066,"CCOc1ccccc1OCCn1c(C)nc2ccc(-c3cc(N)nc(N)c3)nc21 [Example 215, 4-{3-[2-(2-ethoxyphenoxy)ethyl]-2-methyl-3H-imidazo[4,5-b]pyridin-5-yl}pyridine-2,6-diamine]"
